This is an account of results in US20260007681A1, “INDOLE DERIVATIVES AS ESTROGEN RECEPTOR DEGRADERS” (REGENTS OF THE UNIVERSITY OF MICHIGAN, priority 2022, published 2026).

Broadly, the DC50 is the midpoint of the concentration-degradation curve. One may read the Dmax as the largest share of the target that was removed. As usually defined, the IC50 is the concentration that inhibits the measured activity by half.

Assay [1] deals with ER in MCF-7 cells (Homo sapiens (Human), UniProt P03372). Briefly: In-cell western (ICW) ER degradation assay in MCF-7 cells (Compounds A1-A70). In kind it is cell-based. The settings on record: MCF-7 cells, 16 hrs treatment; for DC50: ER degradation, 0.02 to 300 nM, read-out: MCF7 ICW DC50; for Dmax: MCF7, maximal ER degradation, read-out: MCF7 ICW Dmax (%).
In assay [2] the target is ERα_LBD(GST) (Homo sapiens (Human), UniProt P03372). Briefly: IC50 measurements for binding to ERα_LBD (GST), LanthaScreen TR-FRET ERα competitive binding assay. The settings on record: 4 nM ERα_LBD(GST), 3 nM Fluormone ES2 Green tracer, 60 min; read-out: ERα HTRF IC50. As to the method:
• 1. ERα_LBD(GST) protein: 4 nM • 2. Tb Anti-GST: 2 nM • 3. Fluormone ES2 Green tracer: 3 nM • 4. Incubation time: 60 min • 5. DMSO: 1% • 6. Assay buffer: Adding 1M DTT to Nuclear receptor Buffer K for final 5 mM DTT. • 7. ZPE: 1% DMSO • 8. HPE: 1 μM ARV_471 • 9. LanthaScreen® TR-FRET ERα Competitive Binding Assay (ThermoFisher, #A15887)
• 1) Cherry pick 2 μL 10 mM compound stock to column 1 of a 384 intermediate plate • 2) Add 18 μL DMSO to column 1 to dilute compound to 1 mM. • 3) Transfer 10 μL 1 mM compound to column 1 of a LDV plate. • 4) Add 6 μl DMSO to column 2-10 of the LDV plate. • 5) Compounds undergo 3-fold serial dilution (3 μL+6 μL) in DMSO. • 6) Transfer 120 nL compound solution to assay plate. • ZPE: 120 nL 100% DMSO
Prepare complete nuclear receptor buffer K by adding 1 M DTT to nuclear receptor buffer K for a final concentration of 5 mM DTT. Complete nuclear receptor buffer K must be prepared fresh daily. Prepare 2X protein solution using complete nuclear receptor buffer K containing 8 nM ERα_LBD(GST) and 4 nM Tb Anti-GST. Then, prepare 2× Fluormone ES2 Green tracer (6 nM) using complete nuclear receptor buffer K. Add 6 μL 2× Fluormone ES2 green tracer into a compound plate (PerkinElmer 6008289) by dragonfly with one-tips-addition. Subsequently, add 6 μL 2× protein solution into the plate. Briefly and gently mix the 384-well plate on a plate shaker and incubate at room temperature protected from light for 60 min. The plate is sealed with a cover to minimize evaporation. Read the plate at wavelengths of 520 nm and 495 nm. Calculate the TR-FRET ratio by dividing the emission signal at 520 nm by the emission signal at 495 nm. Generate a binding curve by plotting the emission ratio vs. the log [ligand]. To determine the IC50 value, fit the data using XL-fit for a sigmoidal dose-response.
In general terms: TR-FRET usually uses a lanthanide donor and a delayed reading to cut background.

In assay [3] the target is CRBN/DDB1 (Homo sapiens (Human), UniProt Q96SW2). Format: binding. The settings on record: His tagged CRBN+DDB-DLS7+CXU4, Cy5-labeled Thalidomide probe, one hour incubation; read-out: CRBN HTRF IC50. On the procedure: The binding potency was determined using H-TRF assay technology (Perkin Elmer). Compounds were serially diluted in DMSO and 0.2 μL volume was transferred to white 384-well plate.

The target in assay [4] is ER in T47D cells (Homo sapiens (Human), UniProt P03372). Briefly: In-cell western (ICW) ER degradation assay in T47D cells (Compounds A1-A70). Format: cell-based. Conditions: T47D cells, 16 hrs treatment; for DC50: ER degradation, 0.02 to 300 nM; for Dmax: T47D, maximal ER degradation, read-out: T47D ICW Dmax (%).
Sequence of ER in T47D cells (P03372 whole entry): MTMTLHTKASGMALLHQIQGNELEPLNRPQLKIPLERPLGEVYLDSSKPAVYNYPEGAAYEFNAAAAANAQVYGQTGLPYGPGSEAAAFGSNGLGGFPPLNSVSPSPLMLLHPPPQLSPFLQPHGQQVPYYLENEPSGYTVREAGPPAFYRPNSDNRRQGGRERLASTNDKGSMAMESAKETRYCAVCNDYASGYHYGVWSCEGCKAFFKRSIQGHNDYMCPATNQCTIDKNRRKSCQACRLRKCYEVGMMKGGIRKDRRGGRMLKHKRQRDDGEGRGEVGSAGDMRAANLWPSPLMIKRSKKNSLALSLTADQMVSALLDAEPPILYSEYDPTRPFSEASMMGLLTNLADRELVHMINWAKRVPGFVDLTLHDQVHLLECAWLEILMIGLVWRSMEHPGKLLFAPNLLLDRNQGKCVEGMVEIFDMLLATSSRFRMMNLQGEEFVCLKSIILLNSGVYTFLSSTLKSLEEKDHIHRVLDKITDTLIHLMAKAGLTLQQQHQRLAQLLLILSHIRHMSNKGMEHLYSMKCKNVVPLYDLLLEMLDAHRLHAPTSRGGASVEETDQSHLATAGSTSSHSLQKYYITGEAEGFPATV

Sequence of ER in MCF-7 cells (P03372 whole entry): as above
Sequence of CRBN/DDB1 (Q96SW2 whole entry): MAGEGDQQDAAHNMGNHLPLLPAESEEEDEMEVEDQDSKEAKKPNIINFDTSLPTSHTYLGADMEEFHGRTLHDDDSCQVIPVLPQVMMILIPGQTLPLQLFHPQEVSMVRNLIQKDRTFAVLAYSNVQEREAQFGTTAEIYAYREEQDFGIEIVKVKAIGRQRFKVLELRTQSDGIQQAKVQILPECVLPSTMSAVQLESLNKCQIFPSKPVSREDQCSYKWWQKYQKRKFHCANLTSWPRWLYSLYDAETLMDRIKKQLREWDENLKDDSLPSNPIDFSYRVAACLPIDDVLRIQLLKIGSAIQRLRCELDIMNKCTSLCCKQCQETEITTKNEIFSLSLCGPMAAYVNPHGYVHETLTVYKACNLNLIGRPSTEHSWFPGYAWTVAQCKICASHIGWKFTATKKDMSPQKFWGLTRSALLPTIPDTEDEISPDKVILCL
Sequence of CRBN/DDB1 (Q16531 whole entry partner): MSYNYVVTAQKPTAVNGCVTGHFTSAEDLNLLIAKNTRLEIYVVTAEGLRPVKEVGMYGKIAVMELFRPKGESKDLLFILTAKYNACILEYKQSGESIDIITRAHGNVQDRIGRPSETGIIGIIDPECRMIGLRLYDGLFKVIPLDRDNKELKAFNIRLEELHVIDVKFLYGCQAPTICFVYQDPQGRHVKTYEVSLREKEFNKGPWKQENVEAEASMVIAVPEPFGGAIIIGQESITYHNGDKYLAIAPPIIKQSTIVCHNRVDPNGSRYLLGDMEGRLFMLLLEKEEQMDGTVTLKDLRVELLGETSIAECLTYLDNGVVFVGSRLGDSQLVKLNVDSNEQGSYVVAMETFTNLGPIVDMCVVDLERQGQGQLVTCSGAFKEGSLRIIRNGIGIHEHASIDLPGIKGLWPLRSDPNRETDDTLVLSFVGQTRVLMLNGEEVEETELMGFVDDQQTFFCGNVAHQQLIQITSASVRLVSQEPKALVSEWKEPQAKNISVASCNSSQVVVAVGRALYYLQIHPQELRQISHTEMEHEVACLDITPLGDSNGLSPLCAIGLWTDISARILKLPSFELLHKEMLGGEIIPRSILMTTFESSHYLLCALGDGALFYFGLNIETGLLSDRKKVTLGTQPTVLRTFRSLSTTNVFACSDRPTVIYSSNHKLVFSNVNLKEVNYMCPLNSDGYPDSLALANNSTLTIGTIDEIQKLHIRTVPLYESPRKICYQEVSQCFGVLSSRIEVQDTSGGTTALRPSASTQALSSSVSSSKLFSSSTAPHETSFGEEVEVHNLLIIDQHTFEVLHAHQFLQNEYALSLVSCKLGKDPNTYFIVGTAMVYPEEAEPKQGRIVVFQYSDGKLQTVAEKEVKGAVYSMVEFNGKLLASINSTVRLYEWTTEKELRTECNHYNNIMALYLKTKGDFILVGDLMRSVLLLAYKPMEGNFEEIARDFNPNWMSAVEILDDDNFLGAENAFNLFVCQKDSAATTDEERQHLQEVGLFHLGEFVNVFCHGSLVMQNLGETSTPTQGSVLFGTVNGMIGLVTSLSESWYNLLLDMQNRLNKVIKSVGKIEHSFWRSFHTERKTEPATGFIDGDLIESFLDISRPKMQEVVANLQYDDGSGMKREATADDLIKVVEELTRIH
Sequence of ERα_LBD(GST) (P03372 311-547): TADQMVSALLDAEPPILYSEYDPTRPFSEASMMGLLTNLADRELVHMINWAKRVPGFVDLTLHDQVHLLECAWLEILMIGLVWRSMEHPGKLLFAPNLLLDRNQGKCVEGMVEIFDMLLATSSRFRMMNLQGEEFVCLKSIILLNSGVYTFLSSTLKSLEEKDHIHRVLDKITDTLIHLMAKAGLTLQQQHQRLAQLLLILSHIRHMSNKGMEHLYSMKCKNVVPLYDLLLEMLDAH

As to `C[C@@H]1Cc2c([nH]c3ccccc23)[C@@H](c2cnc(N3CCC4(CC3)C[C@@H](CN3CCN5c6ccc(C(=O)N[C@H]7CCC(=O)NC7=O)nc6OC[C@H]5C3)CO4)nc2)N1CC(F)F` [Compound A63, (4aR)-3-((8-(5-((1R,3R)-2-(2,2-difluoroethyl)-3-methyl-2,3,4,9-tetrahydro-1H-pyrido[3,4-b]indol-1-yl)pyrimidin-2-yl)-1-oxa-8-azaspiro[4.5]decan-3-yl)methyl)-N—((S)-2,6-dioxopiperidin-3-yl)-1,2,3,4,4a,5-hexahydropyrazino[1,2-d]pyrido[2,3-b][1,4]oxazine-8-carboxamide], the DC50 in assay [1] and in assay [4] was 1 to 10 nM in each case. The Dmax in assay [1] and in assay [4] was 50 to 75% throughout. Moreover, the IC50 in assay [2] is no less than 10 nM; in assay [3] it was 500 to 5000 nM.

As for `C[C@H]1Cc2c([nH]c3ccccc23)[C@H](c2cnc(N3CCC4(CC3)C[C@H](CN3CCN5c6cc7c(cc6OC[C@@H]5C3)C(=O)N([C@@H]3CCC(=O)NC3=O)C7)CO4)nc2)N1CC(F)F` [Compound A69, (R)-3-((S)-3-(((R)-8-(5-((1S,3S)-2-(2,2-difluoroethyl)-3-methyl-2,3,4,9-tetrahydro-1H-pyrido[3,4-b]indol-1-yl)pyrimidin-2-yl)-1-oxa-8-azaspiro[4.5]decan-3-yl)methyl)-8-oxo-1,2,3,4,4a,5,8,10-octahydro-9H-pyrazino[1′,2′:4,5][1,4]oxazino[2,3-f]isoindol-9-yl)piperidine-2,6-dione], the DC50 in assay [1] and in assay [4] was less than 1 nM throughout. The greatest degradation seen (Dmax) in assay [1] and in assay [4] was greater than 75% in each case. The half-inhibitory concentration (IC50) in assay [2] is no less than 10 nM; in assay [3] it was 50 to 500 nM.
